Measurements from patent US11629171B2, “Beta-hairpin peptidomimetics” (POLYPHOR AG, priority 2017, dated 2023).
In brackets after ≈: the same amount, converted by molar mass. Where a SMILES comes first, the peptide text is derived from it. Bridges are numbered along the chain shown (N, C = ends). Roman numbers before positions name the chains, in order. [ ]: non-standard residue; d: D form. dDab = NCC[C@@H](N)C(=O)O; Nle = CCCC[C@H](N)C(=O)O; Orn = NCCC[C@H](N)C(=O)O; Dab = NCC[C@H](N)C(=O)O; Dap = NC[C@H](N)C(=O)O

Assays:
Format in all cases: cell-based
Escherichia coli 926415 = settings: 926415
Summary of the method: (§1)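 CLSI broth microdilution in cation-adjusted Mueller-Hinton II broth with 0.002% polysorbate 80 (final), inoculum appr. 10^6 CFU/mL, peptides in serial two-fold dilutions. MIC (μg/mL) is the lowest concentration without visible growth after 18-20 h at 35° C.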

[1] = tested on: Klebsiella pneumoniae SSI #3010; settings: SSI #3010
Summary of the method: as §1

[2] = tested on: Acinetobacter baumannii DSM 30008; settings: DSM 30008
Summary of the method: as §1

[3] = tested on: Klebsiella pneumoniae 968733; settings: 968733
Summary of the method: as §1

[4] = tested on: Acinetobacter baumannii 872842; settings: 872842
Summary of the method: as §1

[5] = tested on: Escherichia coli ATCC 25922; settings: ATCC 25922
Summary of the method: as §1

[6] = tested on: Pseudomonas aeruginosa ATCC 27853; settings: ATCC 27853
Summary of the method: as §1

[7] = tested on: Enterobacter cloacae 848840; settings: 848840
Summary of the method: as §1

[8] = tested on: human red blood cells (hRBC); experiment: Hemolysis; settings: red cells of human, 1 h, 200
Summary of the method: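 Percent lysis of human red cells was derived from OD540 of the supernatant, referenced to 2% Triton X-100, after a 1 h, 37° C incubation of 20% (v/v) cells with 200 μg/mL peptide.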

Row | Compound | MIC (Escherichia coli 926415) | Klebsiella pneumoniae SSI #3010 MIC [1] | Acinetobacter baumannii DSM 30008 MIC [2] | MIC [3] | MIC [4] | Escherichia coli ATCC 25922 MIC [5] | Pseudomonas aeruginosa ATCC 27853 MIC [6] | MIC [7] | Hemolysis at 200 μg/mL [8]
1 | CC[C@H](C)[C@@H]1NC(=O)[C@H](CO)NC(=O)[C@H](Cc2c[nH]c3ccccc23)NC(=O)[C@H](CO)NC(=O)[C@@H](CCN)NC(=O)[C@H](CCC(=O)N[C@@H](CCN)C(=O)N[C@H](C(=O)N[C@@H](CN)C(=O)N[C@H]2CCNC(=O)[C@H]([C@@H](C)O)NC(=O)[C@H](CCN)NC(=O)[C@H](CCN)NC(=O)[C@H](CC(C)C)NC(=O)[C@@H](CC(C)C)NC(=O)[C@H](CCN)NC2=O)[C@@H](C)O)NC(=O)[C@H](CCN)NC(=O)[C@H](Cc2ccc(O)cc2)NC(=O)[C@@H](NC(=O)[C@@H](NC(C)=O)C(C)C)CSSC[C@@H](C(=O)N[C@@H](CO)C(N)=O)NC1=O [Ex. 315] (I: Ac-VCY[Dab]E[dDab]SWSICS-NH2 / II: [Dab]T[Dap][Dab][Dab][dL]L[Dab][Dab]T; disulfide I:2-I:11; amide I:5-II:N; lactam II:4-II:C) | 0.0625 µg/mL (≈ 0.0259 µM) | 0.0625 µg/mL | 0.01562 µg/mL | 0.0625 µg/mL (≈ 0.0259 µM) | 0.0625 µg/mL (≈ 0.0259 µM) | 0.01562 µg/mL | 0.0625 µg/mL | 0.125 µg/mL (≈ 0.0518 µM) | 2%
2 | CCCC[C@@H]1NC(=O)[C@H](CO)NC(=O)[C@H](Cc2c[nH]c3ccccc23)NC(=O)[C@H](CO)NC(=O)[C@@H](CCN)NC(=O)[C@H](CCC(=O)N[C@@H](CCN)C(=O)N[C@H](C(=O)N[C@@H](CN)C(=O)N[C@H]2CCNC(=O)[C@H]([C@@H](C)O)NC(=O)[C@H](CCN)NC(=O)[C@H](CCN)NC(=O)[C@H](CC(C)C)NC(=O)[C@@H](CC(C)C)NC(=O)[C@H](CCN)NC2=O)[C@@H](C)O)NC(=O)[C@H](CCN)NC(=O)[C@H](Cc2ccc(O)cc2)NC(=O)[C@@H](NC(=O)[C@@H](NC(C)=O)C(C)C)CSSC[C@@H](C(=O)N[C@@H](CO)C(N)=O)NC1=O [Ex. 316] (I: Ac-VCY[Dab]E[dDab]SWS[Nle]CS-NH2 / II: [Dab]T[Dap][Dab][Dab][dL]L[Dab][Dab]T; disulfide I:2-I:11; amide I:5-II:N; lactam II:4-II:C) | 0.0625 µg/mL (≈ 0.0259 µM) | 0.0625 µg/mL | 0.01562 µg/mL | 0.0625 µg/mL (≈ 0.0259 µM) | 0.03125 µg/mL (≈ 0.013 µM) | 0.01562 µg/mL | 0.0625 µg/mL | 0.0625 µg/mL (≈ 0.0259 µM) | <1%
3 | CC(=O)N[C@H](C(=O)N[C@H]1CCCNC(=O)C[C@@H](C(=O)N[C@@H](CO)C(N)=O)NC(=O)[C@H](C(C)C)NC(=O)[C@H](CO)NC(=O)[C@H](Cc2c[nH]c3ccccc23)NC(=O)[C@H](CO)NC(=O)[C@@H](CCN)NC(=O)[C@H](CCC(=O)N[C@@H](CCN)C(=O)N[C@H](C(=O)N[C@@H](CN)C(=O)N[C@H]2CCNC(=O)[C@H]([C@@H](C)O)NC(=O)[C@H](CCN)NC(=O)[C@H](CCN)NC(=O)[C@H](CC(C)C)NC(=O)[C@@H](CC(C)C)NC(=O)[C@H](CCN)NC2=O)[C@@H](C)O)NC(=O)[C@H](CCN)NC(=O)[C@H](Cc2ccc(O)cc2)NC1=O)C(C)C [Ex. 319] (I: Ac-V[Orn]Y[Dab]E[dDab]SWSVDS-NH2 / II: [Dab]T[Dap][Dab][Dab][dL]L[Dab][Dab]T; lactam I:2-I:11, II:4-II:C; amide I:5-II:N) | 1 µg/mL (≈ 0.416 µM) | 0.25 µg/mL | 0.125 µg/mL | 4 µg/mL (≈ 1.66 µM) | 0.5 µg/mL (≈ 0.208 µM) | 0.0625 µg/mL | 0.125 µg/mL | 1 µg/mL (≈ 0.416 µM) | <1%
